# Results from patent US10052321B2, “Nanoparticulate compositions and formulations of piperazine compounds” (Rexahn Pharmaceuticals, Inc., priority 2013, dated 2018).
# Assays:
# [1] = Particle size of unmilled API by laser diffraction; assay type: physicochemical; settings: dispersed in aqueous solution of Aerosol OT
# Source text: (§1) API morphology can be characterized by optical microscopy (e.g., Olympus BX51 microscope with Clemex JS-2000 controller). Differential scanning calorimetry (e.g., Mettler-Toledo DSC 1) and thermogravimetric analysis (e.g., Mettler-Toledo TGA/DSC 1) can be used to measure the thermal characteristics of the material. Particle size measurements can be made throughout by, for example, laser diffraction (e.g. Horiba LA-950V2), by dispersing the material, either in water, when surfactant is present in the test sample or in a dilute solution of poloxamer when no other dispersant was present.
# Based on chemical structure, the refractive index of 1-(3,5-dimethoxyphenyl)-4-[(6-fluoro-2-methoxyquinoxalin-3-yl)aminocarbonyl]piperazine was predicted to be 1.637. For particle size measurements, the imaginary component of the refractive index, or the i-value (a unitless factor used by the laser diffraction algorithm to account for the absorption of light by the particles) was determined to be 0.1. Unmilled 1-(3,5-Dimethoxyphenyl)-4-[(6-fluoro-2-methoxyquinoxalin-3-yl)aminocarbonyl]piperazine dispersed readily in an aqueous solution of (Aerosol OT). The median particle size (D50) measured at 13 μm.
# [2] = Oral bioavailability in animal model studies; assay type: in vivo
# Source text: Because of the poor aqueous solubility of 1-(3,5-dimethoxyphenyl)-4-[(6-fluoro-2-methoxyquinoxalin-3-yl)aminocarbonyl]piperazine, production of a submicron suspension needed to be developed as a viable oral delivery option to avoid the need to administer large volumes of a 1-(3,5-dimethoxyphenyl)-4-[(6-fluoro-2-methoxyquinoxalin-3-yl)aminocarbonyl]piperazine solution to achieve the intended dosage levels.
# [3] = Thermal analysis (TGA / DSC); assay type: physicochemical
# Source text: as §1
# Mass loss after 220° C. may be attributable to thermal degradation.
# Differential scanning calorimetry (see FIG. 4) confirmed the endotherm related to the initial mass loss at 108° C.
# [4] = Solubility in water; assay type: physicochemical
# Protocol: This poor solubility in water makes it difficult to deliver the compound and related compounds of formula (1) and has limited clinical development, thus creating a need for the development of a formulation suitable for clinical use. The present invention was developed with a goal of obtaining a suitable formulation that can provide a stable suspension of the compound at a concentration of about 100 mg/mL or a dried formulation that could be either delivered orally or used to prepare a stable suspension. While the invention is described and exemplified primarily with respect to 1-(3,5-dimethoxyphenyl)-4-[(6-fluoro-2-methoxyquinoxalin-3-yl)aminocarbonyl]piperazine, it is to be understood that the invention is applicable to other compounds of formula (1).
# 1-(3,5-Dimethoxyphenyl)-4-[(6-fluoro-2-methoxyquinoxalin-3-yl)aminocarbonyl]piperazine has a very poor solubility in water, less than 0.1 μg/ml, and its solubility was tested in several co-solvents. […] Thus, these classical formulations are not useful in clinical use, although they could be used in some limited purpose in pre-clinical studies.
# Particles were crystalline and irregularly shaped. FIG. 1 illustrates particles of 1-(3,5-Dimethoxyphenyl)-4-[(6-fluoro-2-methoxyquinoxalin-3-yl)aminocarbonyl]piperazine at 400× Magnification. […]
smiles,measurement,setting,value
"COc1cc(OC)cc(N2CCN(C(=O)Nc3nc4cc(F)ccc4nc3OC)CC2)c1 [Compound A, 1-(3,5-Dimethoxyphenyl)-4-[(6-fluoro-2-methoxyquinoxalin-3-yl)aminocarbonyl]piperazine]",median particle size (D50),[1],13 μm
same,oral bioavailability,[2],good oral bioavailability
same,thermal stability,[3]; TGA and DSC data,thermally stable
same,no indication of decomposition until,[3]; differential scanning calorimetry,223 °C
same,solubility,[4],< 0.1 µg/mL
same,solubility in water,[4],practically insoluble
